According to patent US8541363B2, “Pyruvamide compounds as inhibitors of dust mite group 1 peptidase allergen and their use” (St George's Hosptial Medical School, priority 2010, dated 2013):
Read-outs that look alike come from different tables or passages of the source.

Target: Der p 1 (Dermatophagoides pteronyssinus (European house dust mite), UniProt P08176)
Experiment: Der p 1 enzyme activity assay (FRET fluorogenic substrate)
Assay type: biochemical
Procedure: The fluorogenic substrate used for measuring Der p 1 proteolytic activity was 2-aminobenzoylvalylalanylnorleucylseryl-(3-nitro)tyrosinyl aspartamide.
Test compounds were dissolved in dry DMSO and maintained at 4° C. as stock solutions until being diluted for use in screening assays. Final concentration of DMSO in all enzymatic assays was 0.5% v/v.
Reaction mixtures were assembled in a 96-well plate format (Perkin Elmer Optiplate 96F, Perkin Elmer LAS, Seer Green, Buckinghamshire, UK) using a Perkin Elmer MultiPROBE II Plus HTS EX robot with Gripper attachment. […] Dithiothreitol (DTT, 10 μL/well, 1 mM final concentration) was then added together with 10 μL of Der p 1 dissolved at 2.5 μg/mL in reaction buffer supplemented with 1 mM DTT. […] The plate was immediately transferred to a fluorescence plate reader (Perkin Elmer Fusion Alpha-FP or Perkin Elmer Envision) equipped with a temperature-controlled carrier set at 30° C. and the reaction followed by excitation/emission at 330/420 nm.
Inhibitory activity was analysed from progress curves of reactions in the presence of a range of inhibitor concentrations.
Initial velocity in each well was converted to fractional activity by Equation 1: Fractional activity=(Initial rate at inhibitor concentration[X]/Initial rate at inhibitor concentration zero)*100 Equation 1:
Then, IC50 was determined by fitting the data of fractional activity and inhibitor concentration to a 4-parameter logistic curve, using Equation 2: V=Vmin+[Vmax−Vmin]/[1+(X/IC50)Hillslope] […] Biological Data—Der p 1 Enzyme Assay

[1] = threshold stated in text, read-out: Der p 1 IC50

Der p 1, sequence (P08176 99-320): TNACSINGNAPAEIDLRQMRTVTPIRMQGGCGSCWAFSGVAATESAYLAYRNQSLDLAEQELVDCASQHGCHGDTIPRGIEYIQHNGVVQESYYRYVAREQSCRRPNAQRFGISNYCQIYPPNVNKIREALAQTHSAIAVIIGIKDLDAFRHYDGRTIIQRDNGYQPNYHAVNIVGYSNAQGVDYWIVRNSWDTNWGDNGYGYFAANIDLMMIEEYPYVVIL

SMILES	IC50 [1] [nM]	IC50 (Der p 1 IC50) [nM]
CC(C)[C@H](NC(=O)[C@H](C)NC(=O)[C@@H](NC(=O)c1ccccc1)C(C)(C)C)C(=O)C(=O)NCC(=O)N1CCc2ccccc21 [PVA-112]	< 20	
CC(C)[C@H](NC(=O)[C@H](C)NC(=O)[C@@H](NC(=O)c1ccccc1)C(C)(C)C)C(=O)C(=O)NCC(=O)N1CCCCC1 [PVA-078]	< 20	
CC(C)[C@H](NC(=O)[C@H](C)NC(=O)[C@@H](NC(=O)c1ccnc2ccccc12)C(C)(C)C)C(=O)C(=O)NCC(=O)N1CCc2ccccc2C1 [PVA-186]	< 20	
CC(C)[C@H](NC(=O)[C@H](C)NC(=O)[C@@H](NC(=O)c1cccc2ccccc12)C(C)(C)C)C(=O)C(=O)NC1CCCCC1 [PVA-052]	< 200	
C[C@H](NC(=O)[C@H](Cc1ccccc1)NC(=O)c1ccccc1)C(=O)NCC(=O)C(=O)N1CCC(N(C)C)CC1 [PVA-018]	< 2000	
CC(C)[C@H](NC(=O)[C@H](C)NC(=O)[C@@H](NC(=O)c1cnccn1)C(C)(C)C)C(=O)C(=O)NC1CCCCC1 [PVA-054]	< 200	
CC(C)[C@@H](NC(=O)[C@H](C)NC(=O)[C@@H](NC(=O)c1ccncc1)C(C)(C)C)C(=O)C(=O)NC1CCCCC1 [PVA-086]		< 200
CC(C)[C@H](NC(=O)[C@H](C)NC(=O)[C@H](Cc1ccc(N2CCN(C)CC2)cc1)NC(=O)c1ccccc1)C(=O)C(=O)NCc1ccccc1 [PVA-198]	< 200	
CC(C)C[C@H](NC(=O)[C@H](C)NC(=O)[C@H](Cc1ccccc1)NC(=O)c1ccccc1)C(=O)C(=O)N[C@@H](C)c1ccccc1 [PVA-002]	< 200	
CC(C)[C@H](NC(=O)[C@H](C)NC(=O)[C@@H](NC(=O)c1cnccn1)C(C)(C)C)C(=O)C(=O)NCc1ccccc1 [PVA-058]	< 200	
CC(C)[C@H](NC(=O)[C@H](C)NC(=O)[C@@H](NC(=O)c1ccc(OCCN2CCCC2)cc1)C(C)(C)C)C(=O)C(=O)NC1CCCCC1 [PVA-076]	< 200	
CC(C)[C@H](NC(=O)[C@H](C)NC(=O)[C@H](Cc1ccccc1)NC(=O)c1ccccc1)C(=O)C(=O)NC1CCN(C)CC1 [PVA-083]	< 200	
CC(C)[C@H](NC(=O)[C@H](C)NC(=O)C1(NC(=O)c2ccccc2)CCCCC1)C(=O)C(=O)NC1CCCCC1 [PVA-091]	< 200	
CC(C)[C@H](NC(=O)[C@H](C)NC(=O)[C@@H](NC(=O)c1ccccc1)C(C)(C)C)C(=O)C(=O)NCC1CCN(C)CC1 [PVA-163]	< 200	
CC(C)[C@H](NC(=O)[C@H](C)NC(=O)[C@@H](NC(=O)c1ccnc(N2CCOCC2)c1)C(C)(C)C)C(=O)C(=O)NCc1ccccc1 [PVA-048]	< 200	
CC(C)C(NC(=O)[C@H](C)NC(=O)[C@H](Cc1ccccc1)NC(=O)c1ccccc1)C(=O)C(=O)NCc1ccccn1 (some centres unmarked) [PVA-023]	< 200	
CC(C)[C@H](NC(=O)[C@H](C)NC(=O)[C@H](NC(=O)c1ccccc1)C1Cc2ccccc2C1)C(=O)C(=O)NC1CCCCC1 [PVA-029]	< 2000	
CC(C)[C@H](NC(=O)[C@H](C)NC(=O)[C@H](Cc1ccccc1)NC(=O)c1ccccc1)C(=O)C(=O)NCc1cccc(C(=O)O)c1 [PVA-081]	< 200	

SMILES	IC50 [1] [nM]	IC50 (Der p 1 IC50) [nM]
CC(C)[C@H](NC(=O)[C@H](C)NC(=O)[C@@H](NC(=O)c1ccccc1)C(C)(C)C)C(=O)C(=O)NCC(=O)N1CCOCC1 [PVA-079]	< 20	
CC(C)[C@H](NC(=O)[C@H](C)NC(=O)[C@@H](NC(=O)c1ccc(C(=O)O)cc1)C(C)(C)C)C(=O)C(=O)NCC(=O)N1CCN(C)CC1 [PVA-131]	< 200	
CC(C)[C@H](NC(=O)[C@H](C)NC(=O)[C@@H](Cc1ccc(F)cc1)NC(=O)c1ccccc1)C(=O)C(=O)NC1CCCCC1 [PVA-027]	< 200	
CC(C)[C@H](NC(=O)[C@H](C)NC(=O)[C@@H](NC(=O)c1ccccc1)C(C)(C)C)C(=O)C(=O)NCc1ccc(OC(F)(F)F)cc1 [PVA-189]	< 200	
CCCCC(NC(=O)[C@H](C)NC(=O)[C@H](Cc1ccccc1)NC(=O)c1ccccc1)C(=O)C(=O)N1CCCC1 (some centres unmarked) [PVA-006]	< 2000	
CC(C)[C@H](NC(=O)[C@H](C)NC(=O)[C@@H]1Cc2ccccc2CN1C(=O)c1ccccc1)C(=O)C(=O)NC1CCCCC1 [PVA-100]	< 200	
CCC[C@H](NC(=O)[C@H](Cc1ccccc1)NC(=O)c1ccccc1)C(=O)N[C@H](C(=O)C(=O)NC1CCCCC1)C(C)C [PVA-088]	< 200	
CC(C)[C@H](NC(=O)[C@H](C)NC(=O)[C@H](Cc1ccccc1)NC(=O)c1ccncc1)C(=O)C(=O)NC1CCCC1 [PVA-175]	< 200	
CCCCC(NC(=O)[C@H](C)NC(=O)[C@H](Cc1ccccc1)NC(=O)c1ccccc1)C(=O)C(=O)N1CCN(C)CC1 (some centres unmarked) [PVA-007]	< 2000	
CC(C)[C@H](NC(=O)[C@H](C)NC(=O)[C@H](Cc1ccccc1)NC(=O)c1ccccc1)C(=O)C(=O)N[C@@H](C)C(=O)N1CCN(C)CC1 [PVA-094]		< 20
CC(C)[C@H](NC(=O)[C@H](C)NC(=O)[C@@H](NC(=O)c1ccc(N2CCOCC2)nc1)C(C)(C)C)C(=O)C(=O)NC1CCCCC1 [PVA-049]	< 200	
CC(C)[C@H](NC(=O)[C@H](C)NC(=O)[C@H](Cc1ccccc1)NC(=O)c1ccccc1)C(=O)C(=O)NCCN1CCN(C)CC1 [PVA-098]	< 200	
CC(C)[C@H](NC(=O)[C@H](C)NC(=O)[C@@H](NC(=O)c1ccc(Cl)cc1)C(C)(C)C)C(=O)C(=O)NCc1ccccc1 [PVA-184]	< 200	
CC(=O)Nc1ccc(C(=O)N[C@@H](Cc2ccccc2)C(=O)N[C@@H](C)C(=O)N[C@H](C(=O)C(=O)NCc2ccccc2)C(C)C)cn1 [PVA-059]	< 200	
CC(C)[C@H](NC(=O)[C@H](C)NC(=O)[C@@H](NC(=O)c1ccccc1N1CCN(C)CC1)C(C)(C)C)C(=O)C(=O)NCc1ccccc1 [PVA-201]	< 200	
CC(C)[C@H](NC(=O)[C@H](C)NC(=O)[C@@H](NC(=O)c1cccc(N2CCN(C)CC2)c1)C(C)(C)C)C(=O)C(=O)NCc1ccccc1 [PVA-173]	< 200	
CC(=O)Nc1cc(C(=O)N[C@H](C(=O)N[C@@H](C)C(=O)N[C@H](C(=O)C(=O)NCc2ccccc2)C(C)C)C(C)(C)C)ccn1 [PVA-064]	< 200	

Further lines, with some results ahead:

IC50 [1] [nM]	SMILES	IC50 (Der p 1 IC50) [nM]
< 20	CC(C)[C@H](NC(=O)[C@H](C)NC(=O)[C@@H](NC(=O)c1ccccc1)C(C)(C)C)C(=O)C(=O)NCc1cn[nH]c1 [PVA-158]	
< 200	CC(C)[C@H](NC(=O)[C@H](C)NC(=O)[C@@H](NC(=O)c1ccccc1)C(C)(C)C)C(=O)C(=O)NCc1cccc(N2CCN(C)CC2)c1 [PVA-190]	
< 20	CC(C)[C@H](NC(=O)[C@H](C)NC(=O)[C@@H](NC(=O)c1ccccc1)C(C)(C)C)C(=O)C(=O)NCc1ccc(NC(N)=O)cc1 [PVA-194]	
< 200	CC(C)[C@H](NC(=O)[C@H](C)NC(=O)[C@@H](Cc1ccncc1)NC(=O)c1ccccc1)C(=O)C(=O)NC1CCCCC1 [PVA-036]	
< 200	CC(C)[C@H](NC(=O)[C@H](C)NC(=O)[C@@H](NC(=O)c1ccccc1)C(C)(C)C)C(=O)C(=O)N[C@@H](C)c1ccccc1 [PVA-133]	
< 20	CNC(=O)c1ccc(CNC(=O)C(=O)[C@@H](NC(=O)[C@H](C)NC(=O)[C@@H](N2Cc3ccccc3C2=O)C(C)(C)C)C(C)C)cc1 [PVA-209]	
< 200	CC(C)[C@H](NC(=O)[C@H](C)NC(=O)[C@@H](NC(=O)c1ccccc1)C(C)(C)C)C(=O)C(=O)NCc1cncn1C [PVA-124]	
< 20	CC(C)[C@H](NC(=O)[C@H](C)NC(=O)[C@@H](NC(=O)C1CCN(C)CC1)C(C)(C)C)C(=O)C(=O)NCc1ccccc1 [PVA-216]	
< 20	CC(C)[C@H](NC(=O)[C@H](C)NC(=O)[C@@H](NC(=O)c1cccc(C(=O)O)c1)C(C)(C)C)C(=O)C(=O)NCC(=O)N1CCN(C)CC1 [PVA-130]	
< 20	COc1ccc(CNC(=O)C(=O)[C@@H](NC(=O)[C@H](C)NC(=O)[C@@H](NC(=O)c2ccccc2)C(C)(C)C)C(C)C)cc1 [PVA-204]	
< 20	CC(C)[C@H](NC(=O)[C@H](C)NC(=O)[C@@H](NC(=O)c1ccccc1C(F)(F)F)C(C)(C)C)C(=O)C(=O)NCc1ccccc1 [PVA-182]	
< 20	CC(C)[C@H](NC(=O)[C@H](C)NC(=O)[C@@H](NC(=O)c1ccccc1)C(C)(C)c1ccccc1)C(=O)C(N)=O [PVA-143]	
< 20	CC(C)[C@H](NC(=O)[C@H](C)NC(=O)[C@@H](NC(=O)c1ccccc1)C12CC3CC(CC(C3)C1)C2)C(=O)C(=O)NCc1ccc(S(N)(=O)=O)cc1 [PVA-214]	
< 20	CC(C)[C@H](NC(=O)[C@H](C)NC(=O)[C@@H](NC(=O)c1cncc2ccccc12)C(C)(C)C)C(=O)C(=O)NCc1ccccc1 [PVA-074]	
< 20	CC(C)C[C@H](NC(=O)[C@H](C)NC(=O)[C@H](Cc1ccccc1)NC(=O)c1ccccc1)C(=O)C(=O)NCc1ccccc1 [PVA-005]	
< 20	CC(C)[C@H](NC(=O)[C@H](C)NC(=O)[C@@H](N1Cc2ccccc2C1=O)C(C)(C)C)C(=O)C(=O)NCc1ccc(CN(C)C)cc1 [PVA-210]	
< 20	CC(C)[C@H](NC(=O)[C@H](C)NC(=O)[C@H](Cc1ccccc1)NC(=O)c1ccccc1)C(=O)C(=O)NC1CCCCC1 [PVA-003]	
< 20	CC(C)[C@H](NC(=O)[C@H](C)NC(=O)[C@@H](N1Cc2ccccc2C1=O)C(C)(C)C)C(=O)C(=O)NCc1ccc(S(N)(=O)=O)cc1 [PVA-206]	
